According to US20120141467A1, “Ascorbic acid to treat chronic obstructive lung diseases and non-Hodgkin's lymphoma” (priority 2010, published 2012):

Test system: upper respiratory mucosa
Assay: Safety tests of topical ascorbate (spray, lozenge) on upper respiratory mucosa
Details: Three ml oral/nasal spray in sterile water three times daily for six months
From the text: Initiation of the test sought first to assure that the designed aerosol would be safely tolerated by the IC's respiratory mucosa.

O=C1O[C@H]([C@@H](O)CO)C(O)=C1O [ascorbate]
Adverse effects of spray on upper respiratory mucosa: no adverse effects
